We go through three molecules from PMC11189301, “Structure of the human outer kinetochore KMN network complex” (Nature Structural & Molecular Biology, 2024).

For data set [1], the system named is Wild-type MIS12C. Description: Analytical size-exclusion chromatography (SEC), CENP-C^1–71 binding to wild-type MIS12C. Further details: species or system Homo sapiens. Particulars: 4 µM CENP-C^1–71-MBP + 4 µM wild-type MIS12C; 20 mM HEPES pH 7.8, 150 mM NaCl, 0.5 mM TCEP; Superdex S200; SDS-PAGE; at least two repeats. The protocol: (§1) Four micromolar of CENP-C^1–71-MBP was mixed with 4 µM of either wild-type MIS12C or three mutants (MIS12C^ΔN-Dsn1, MIS12^Dsn1-W96A R97A R98A, MIS12C^Dsn1-S100D S109D) in a buffer of 20 mM HEPES (pH 7.8), 150 mM NaCl and 0.5 mM TCEP, and 50 µl of the mixture was loaded onto a Superdex S200 size-exclusion column (Cytiva).
(§2) Coloured by pLDDT score. e AlphaFold2 Multimer prediction of the K. lactis MIS12C coloured by subunit with insert highlighting conservation of the auto-inhibitory Dsn1^N mechanism. Source data

The test system of data set [2] is MIS12^Dsn1-W96A R97A R98A. Description: Analytical SEC, CENP-C^1–71 binding to MIS12C with WRR linchpin substitutions. Further details: species or system Homo sapiens. Particulars: 4 µM CENP-C^1–71-MBP + 4 µM MIS12^Dsn1-W96A R97A R98A; 20 mM HEPES pH 7.8, 150 mM NaCl, 0.5 mM TCEP; Superdex S200; SDS-PAGE; at least two repeats. As for the experimental part:
as §1, §2

The subject of data set [3] is MIS12 complex. Further details: method as in PMID 24530301. The note with it: compared with Nsl1 C-terminal peptide (residues 258–281); cited from earlier work.
Data set [4] deals with Knl1. Description: SEC assessment of MIS12C^Nsl1ΔC binding to Knl1. Further details: species or system Homo sapiens. The note with it: MIS12C^Nsl1ΔC (Nsl1 residues 265–281 deleted) + KNL1 at 4 µM each; 20 mM HEPES pH 7.8, 150 mM NaCl, 0.5 mM TCEP; Superose 6; at least two repeats. As for the experimental part: Assessment of substitutions in the MIS12C–KNL1 interfaces
To test the effect of substitutions in the MIS12C–KNL1 interfaces, either wild-type MIS12C or MIS12C^Nsl1ΔC was mixed with either wild-type KNL1 or two mutants (KNL1^R2248D […] (KNL1^mut1), KNL1^S2270R S2272W (KNL1^mut2)) at 4 µM each in a buffer of 20 mM HEPES (pH 7.8), 150 mM NaCl and 0.5 mM TCEP, and 50 µl was loaded onto a Superose 6 size-exclusion column (Cytiva).
Extended Data Fig. 9 Biochemical validation of the MIS12C:Knl1 interface. a Coomassie blue-stained SDS-PAGE gels of the MIS12C:Knl1 interaction reconstitutions. MIS12C (WT) and MIS12C with Nsl1 truncated at the C-terminus (1–264 Nsl1 construct, MIS12C^Nsl1ΔC) were tested in their ability to bind either wild-type RWD domains of Knl1 (2131–2337 construct, labelled Knl1 for simplicity) or Knl1 mutants (R2248D/W2249S substitutions, Knl1^mut1, and S2270R/S2272W substitutions, Knl1^mut2, as well as S2270R/S2272W/R2248A/W2249S substitutions, Knl1^mut3). The binding experiments were repeated at least two independent times with identical results. The gels are aligned according to the fraction number of the protein sample eluted from the size exclusion column. b SEC elution chromatograms of all of the experiments described in (a). Source data

Take “CENP-C^1–71: CENP-C residues 1–71 fused to a C-terminal maltose-binding protein (MBP) tag, expressed in E. coli”: the “CENP-C^1–71 binding by SEC, in words” value was “only partially bound” in data set [1] and “binding of almost all CENP-C” in data set [2].

As to “Knl1: outer kinetochore protein Knl1; prior affinity data of ref 11”, the “affinity of Knl1 for the whole MIS12 complex, in words” value in data set [3] is reported as “only slightly higher than its affinity for a peptide modeled on the C terminus of Nsl1 alone (residues 258–281)”.

B1: MIS12C^Nsl1ΔC: MIS12C with Nsl1 truncated at the C-terminus (1–264 Nsl1 construct; residues 265–281 deleted) (protein)
chain 1: MSVDPMTYEAQFFGFTPQTCMLRIYIAFQDYLFEVMQAVEQVILKKLDGIPDCDISPVQIRKCTEKFLCFMKGHFDNLFSKMEQLFLQLILRIPSNILLPEDKCKETPYSEEDFQHLQKEIEQLQEKYKTELCTKQALLAELEEQKIVQAKLKQTLTFFDELHNVGRDHGTSDFRESLVSLVQNSRKLQNIRDNVEKESKRLKIS
chain 2: MAEASSANLGSGCEEKRHEGSSSESVPPGTTISRVKLLDTMVDTFLQKLVAAGSYQRFTDCYKCFYQLQPAMTQQIYDKFIAQLQTSIREEISDIKEEGNLEAVLNALDKIVEEGKVRKEPAWRPSGIPEKDLHSVMAPYFLQQRDTLRRHVQKQEAENQQLADAVLAGRRQVEELQLQVQAQQQAWQALHREQRELVAVLREPE
chain 3: MTSVTRSEIIDEKGPVMSKTHDHQLESSLSPVEVFAKTSASLEMNQGVSEERIHLGSSPKKGGNCDLSHQERLQSKSLHLSPQEQSASYQDRRQSWRRASMKETNRRKSLHPIHQGITELSRSISVDLAESKRLGCLLLSSFQFSIQKLEPFLRDTKGFSLESFRAKASSLSEELKHFADGLETDGTLQKCFEDSNGKASDFSLEASVAEMKEYITKFSLERQTWDQLLLHYQQEAKEILSRGSTEAKITEVKVEPMTYLGSSQNEVLNTKPDYQKILQNQSKVFDCMELVMDELQGSVKQLQAFMDESTQCFQKVSVQLGKRSMQQLDPSPARKLLKLQLQNPPAIHGSGSGSCQ
chain 4: MAGSPELVVLDPPWDKELAAGTESQALVSATPREDFRVRCTSKRAVTEMLQLCGRFVQKLGDALPEEIREPALRDAQWTFESAVQENISINGQAWQEASDNCFMDSDIKVLEDQFDEIIVDIATKRKQYPRKILECVIKTIKAKQEILKQYHPVVHPLDLKYDPDPAPHMENLKCRGETVAKEISEAMKSLPALIEQGEGFSQVLRMQPVIHLQRIHQEVFSSCHRKPDAKPENFITQIETTPTETASRKTSDMVLKRKQTKDC
modifications: left off: double strep II (DS), C-terminal, state not stated
B1: in data set [4], the “MIS12C–Knl1 interaction by SEC, in words” value was “reduced the interaction strength between Knl1 and MIS12C”.
